According to patent US4508663A, “Process for preparing thiosulfenamide derivatives of N-phosphonomethylglycinonitriles” (Monsanto Company, priority 1983, dated 1985):

How the values were obtained:
Assay in all cases: post-emergence herbicidal activity, greenhouse
Type in all cases: in vivo
[1] = tested on: Crabgrass; details: Table II
In short: (§1)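 Plants grown from seed or perennial propagules in greenhouse soil pans were sprayed at two to three weeks with compound solution or suspension containing about 0.4% emulsifier, at the stated application rates. Injury relative to untreated controls was scored at approximately two and four weeks after treatment on a post-emergence activity index.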

[2] = tested on: Barnyardgrass
In short: as §1

[3] = tested on: Wheat; details: Table II
In short: as §1

[4] = tested on: Morningglory
In short: as §1

[5] = tested on: Rice; details: Table II
In short: as §1

[6] = tested on: Velvetleaf
In short: as §1

[7] = tested on: Soybean; details: Table II
In short: as §1

[8] = tested on: Smartweed; details: Table I, 4 WAT
In short: as §1

[9] = tested on: Sorghum; details: Table II
In short: as §1

[10] = tested on: Quackgrass; details: Table I, 4 WAT
In short: as §1

[11] = tested on: Cocklebur
In short: as §1

[12] = tested on: Lambsquarters
In short: as §1

[13] = tested on: Yellow Nutsedge; details: Table I, 4 WAT
In short: as §1

[14] = tested on: Hemp Sesbania; details: Table II
In short: as §1

[15] = tested on: Panicum Spp; details: Table II
In short: as §1

[16] = tested on: Wild Buckwheat; details: Table II
In short: as §1

[17] = tested on: Johnsongrass; details: Table I, 4 WAT
In short: as §1

[18] = tested on: Sugar Beet; details: Table II
In short: as §1

[19] = tested on: Canada Thistle; details: Table I, 4 WAT
In short: as §1

[20] = tested on: Downy Brome
In short: as §1

## CSSN(CC#N)CP(=O)(Oc1ccccc1)Oc1ccccc1 [VII]
[1]; 2 WAT, 0.056 kg/h
  post-emergence herbicidal activity index: 0 (0-24% control)
[1]; 2 WAT, 0.28 kg/h
  post-emergence herbicidal activity index: 1 (25-49% control)
[1]; 2 WAT, 1.12 kg/h
  post-emergence herbicidal activity index: 3 (75-99% control)
[1]; 2 WAT, 5.6 kg/h
  post-emergence herbicidal activity index: 4 (100% control)
[1]; 4 WAT, 1.12 kg/h
  post-emergence herbicidal activity index: 3 (75-99% control)
[1]; 4 WAT, 5.6 kg/h
  post-emergence herbicidal activity index: 4 (100% control)
[2]; Table I, 4 WAT, 5.6 kg/h
  post-emergence herbicidal activity index: 2 (50-74% control)
[2]; Table I, 4 WAT, 11.2 kg/h
  post-emergence herbicidal activity index: 3 (75-99% control)
[2]; Table II, 2 WAT, 0.056 kg/h
  post-emergence herbicidal activity index: 0 (0-24% control)
[2]; Table II, 2 WAT, 0.28 kg/h
  post-emergence herbicidal activity index: 0 (0-24% control)
[2]; Table II, 2 WAT, 1.12 kg/h
  post-emergence herbicidal activity index: 1 (25-49% control)
[2]; Table II, 2 WAT, 5.6 kg/h
  post-emergence herbicidal activity index: 3 (75-99% control)
[2]; Table II, 4 WAT, 1.12 kg/h
  post-emergence herbicidal activity index: 1 (25-49% control)
[2]; Table II, 4 WAT, 5.6 kg/h
  post-emergence herbicidal activity index: 3 (75-99% control)
[3]; 2 WAT, 0.056 kg/h
  post-emergence herbicidal activity index: 0 (0-24% control)
[3]; 2 WAT, 0.28 kg/h
  post-emergence herbicidal activity index: 1 (25-49% control)
[3]; 2 WAT, 1.12 kg/h
  post-emergence herbicidal activity index: 1 (25-49% control)
[3]; 2 WAT, 5.6 kg/h
  post-emergence herbicidal activity index: 2 (50-74% control)
[3]; 4 WAT, 1.12 kg/h
  post-emergence herbicidal activity index: 0 (0-24% control)
[3]; 4 WAT, 5.6 kg/h
  post-emergence herbicidal activity index: 3 (75-99% control)
[4]; Table I, 4 WAT, 5.6 kg/h
  post-emergence herbicidal activity index: 2 (50-74% control)
[4]; Table I, 4 WAT, 11.2 kg/h
  post-emergence herbicidal activity index: 2 (50-74% control)
[4]; Table II, 2 WAT, 0.056 kg/h
  post-emergence herbicidal activity index: 0 (0-24% control)
[4]; Table II, 2 WAT, 0.28 kg/h
  post-emergence herbicidal activity index: 1 (25-49% control)
[4]; Table II, 2 WAT, 1.12 kg/h
  post-emergence herbicidal activity index: 1 (25-49% control)
[4]; Table II, 2 WAT, 5.6 kg/h
  post-emergence herbicidal activity index: 2 (50-74% control)
[4]; Table II, 4 WAT, 1.12 kg/h
  post-emergence herbicidal activity index: 0 (0-24% control)
[4]; Table II, 4 WAT, 5.6 kg/h
  post-emergence herbicidal activity index: 2 (50-74% control)
[5]; 2 WAT, 0.056 kg/h
  post-emergence herbicidal activity index: 0 (0-24% control)
[5]; 2 WAT, 0.28 kg/h
  post-emergence herbicidal activity index: 0 (0-24% control)
[5]; 2 WAT, 1.12 kg/h
  post-emergence herbicidal activity index: 0 (0-24% control)
[5]; 2 WAT, 5.6 kg/h
  post-emergence herbicidal activity index: 3 (75-99% control)
[5]; 4 WAT, 1.12 kg/h
  post-emergence herbicidal activity index: 0 (0-24% control)
[5]; 4 WAT, 5.6 kg/h
  post-emergence herbicidal activity index: 3 (75-99% control)
[6]; Table I, 4 WAT, 5.6 kg/h
  post-emergence herbicidal activity index: 1 (25-49% control)
[6]; Table I, 4 WAT, 11.2 kg/h
  post-emergence herbicidal activity index: 1 (25-49% control)
[6]; Table II, 2 WAT, 0.056 kg/h
  post-emergence herbicidal activity index: 0 (0-24% control)
[6]; Table II, 2 WAT, 0.28 kg/h
  post-emergence herbicidal activity index: 0 (0-24% control)
[6]; Table II, 2 WAT, 1.12 kg/h
  post-emergence herbicidal activity index: 1 (25-49% control)
[6]; Table II, 2 WAT, 5.6 kg/h
  post-emergence herbicidal activity index: 2 (50-74% control)
[6]; Table II, 4 WAT, 1.12 kg/h
  post-emergence herbicidal activity index: 0 (0-24% control)
[6]; Table II, 4 WAT, 5.6 kg/h
  post-emergence herbicidal activity index: 2 (50-74% control)
[7]; 2 WAT, 0.056 kg/h
  post-emergence herbicidal activity index: 0 (0-24% control)
[7]; 2 WAT, 0.28 kg/h
  post-emergence herbicidal activity index: 0 (0-24% control)
[7]; 2 WAT, 1.12 kg/h
  post-emergence herbicidal activity index: 1 (25-49% control)
[7]; 2 WAT, 5.6 kg/h
  post-emergence herbicidal activity index: 2 (50-74% control)
[7]; 4 WAT, 1.12 kg/h
  post-emergence herbicidal activity index: 1 (25-49% control)
[7]; 4 WAT, 5.6 kg/h
  post-emergence herbicidal activity index: 2 (50-74% control)
[8]; 5.6 kg/h
  post-emergence herbicidal activity index: 2 (50-74% control)
[8]; 11.2 kg/h
  post-emergence herbicidal activity index: 4 (100% control)
[9]; 2 WAT, 0.056 kg/h
  post-emergence herbicidal activity index: 0 (0-24% control)
[9]; 2 WAT, 0.28 kg/h
  post-emergence herbicidal activity index: 1 (25-49% control)
[9]; 2 WAT, 1.12 kg/h
  post-emergence herbicidal activity index: 1 (25-49% control)
[9]; 2 WAT, 5.6 kg/h
  post-emergence herbicidal activity index: 2 (50-74% control)
[9]; 4 WAT, 1.12 kg/h
  post-emergence herbicidal activity index: 2 (50-74% control)
[9]; 4 WAT, 5.6 kg/h
  post-emergence herbicidal activity index: 3 (75-99% control)
[10]; 5.6 kg/h
  post-emergence herbicidal activity index: 2 (50-74% control)
[10]; 11.2 kg/h
  post-emergence herbicidal activity index: 1 (25-49% control)
[11]; Table I, 4 WAT, 5.6 kg/h
  post-emergence herbicidal activity index: 2 (50-74% control)
[11]; Table I, 4 WAT, 11.2 kg/h
  post-emergence herbicidal activity index: 3 (75-99% control)
[11]; Table II, 2 WAT, 0.056 kg/h
  post-emergence herbicidal activity index: 0 (0-24% control)
[11]; Table II, 2 WAT, 0.28 kg/h
  post-emergence herbicidal activity index: 1 (25-49% control)
[11]; Table II, 2 WAT, 1.12 kg/h
  post-emergence herbicidal activity index: 1 (25-49% control)
[11]; Table II, 2 WAT, 5.6 kg/h
  post-emergence herbicidal activity index: 2 (50-74% control)
[11]; Table II, 4 WAT, 1.12 kg/h
  post-emergence herbicidal activity index: 1 (25-49% control)
[11]; Table II, 4 WAT, 5.6 kg/h
  post-emergence herbicidal activity index: 3 (75-99% control)
[12]; Table I, 4 WAT, 5.6 kg/h
  post-emergence herbicidal activity index: 3 (75-99% control)
[12]; Table I, 4 WAT, 11.2 kg/h
  post-emergence herbicidal activity index: 4 (100% control)
[12]; Table II, 2 WAT, 0.056 kg/h
  post-emergence herbicidal activity index: 0 (0-24% control)
[12]; Table II, 2 WAT, 0.28 kg/h
  post-emergence herbicidal activity index: 1 (25-49% control)
[12]; Table II, 2 WAT, 1.12 kg/h
  post-emergence herbicidal activity index: 1 (25-49% control)
[12]; Table II, 2 WAT, 5.6 kg/h
  post-emergence herbicidal activity index: 3 (75-99% control)
[12]; Table II, 4 WAT, 1.12 kg/h
  post-emergence herbicidal activity index: 0 (0-24% control)
[12]; Table II, 4 WAT, 5.6 kg/h
  post-emergence herbicidal activity index: 4 (100% control)
[13]; 5.6 kg/h
  post-emergence herbicidal activity index: 2 (50-74% control)
[13]; 11.2 kg/h
  post-emergence herbicidal activity index: 2 (50-74% control)
[14]; 2 WAT, 0.056 kg/h
  post-emergence herbicidal activity index: 0 (0-24% control)
[14]; 2 WAT, 0.28 kg/h
  post-emergence herbicidal activity index: 0 (0-24% control)
[14]; 2 WAT, 1.12 kg/h
  post-emergence herbicidal activity index: 0 (0-24% control)
[14]; 2 WAT, 5.6 kg/h
  post-emergence herbicidal activity index: 1 (25-49% control)
[14]; 4 WAT, 1.12 kg/h
  post-emergence herbicidal activity index: 0 (0-24% control)
[14]; 4 WAT, 5.6 kg/h
  post-emergence herbicidal activity index: 1 (25-49% control)
[15]; 2 WAT, 0.056 kg/h
  post-emergence herbicidal activity index: 0 (0-24% control)
[15]; 2 WAT, 0.28 kg/h
  post-emergence herbicidal activity index: 0 (0-24% control)
[15]; 2 WAT, 1.12 kg/h
  post-emergence herbicidal activity index: 0 (0-24% control)
[15]; 2 WAT, 5.6 kg/h
  post-emergence herbicidal activity index: 1 (25-49% control)
[15]; 4 WAT, 1.12 kg/h
  post-emergence herbicidal activity index: 0 (0-24% control)
[15]; 4 WAT, 5.6 kg/h
  post-emergence herbicidal activity index: 2 (50-74% control)
[16]; 2 WAT, 0.056 kg/h
  post-emergence herbicidal activity index: 0 (0-24% control)
[16]; 2 WAT, 0.28 kg/h
  post-emergence herbicidal activity index: 1 (25-49% control)
[16]; 2 WAT, 1.12 kg/h
  post-emergence herbicidal activity index: 0 (0-24% control)
[16]; 2 WAT, 5.6 kg/h
  post-emergence herbicidal activity index: 2 (50-74% control)
[16]; 4 WAT, 1.12 kg/h
  post-emergence herbicidal activity index: 0 (0-24% control)
[16]; 4 WAT, 5.6 kg/h
  post-emergence herbicidal activity index: 3 (75-99% control)
[17]; 5.6 kg/h
  post-emergence herbicidal activity index: 3 (75-99% control)
[17]; 11.2 kg/h
  post-emergence herbicidal activity index: 4 (100% control)
[18]; 2 WAT, 0.056 kg/h
  post-emergence herbicidal activity index: 0 (0-24% control)
[18]; 2 WAT, 0.28 kg/h
  post-emergence herbicidal activity index: 0 (0-24% control)
[18]; 2 WAT, 1.12 kg/h
  post-emergence herbicidal activity index: 0 (0-24% control)
[18]; 2 WAT, 5.6 kg/h
  post-emergence herbicidal activity index: 1 (25-49% control)
[18]; 4 WAT, 1.12 kg/h
  post-emergence herbicidal activity index: 0 (0-24% control)
[18]; 4 WAT, 5.6 kg/h
  post-emergence herbicidal activity index: 1 (25-49% control)
[19]; 5.6 kg/h
  post-emergence herbicidal activity index: 4 (100% control)
[19]; 11.2 kg/h
  post-emergence herbicidal activity index: 4 (100% control)
[20]; Table I, 4 WAT, 5.6 kg/h
  post-emergence herbicidal activity index: 3 (75-99% control)
[20]; Table I, 4 WAT, 11.2 kg/h
  post-emergence herbicidal activity index: 2 (50-74% control)
[20]; Table II, 2 WAT, 0.056 kg/h
  post-emergence herbicidal activity index: 0 (0-24% control)
[20]; Table II, 2 WAT, 0.28 kg/h
  post-emergence herbicidal activity index: 0 (0-24% control)
[20]; Table II, 2 WAT, 1.12 kg/h
  post-emergence herbicidal activity index: 1 (25-49% control)
[20]; Table II, 2 WAT, 5.6 kg/h
  post-emergence herbicidal activity index: 1 (25-49% control)
[20]; Table II, 4 WAT, 1.12 kg/h
  post-emergence herbicidal activity index: 0 (0-24% control)
[20]; Table II, 4 WAT, 5.6 kg/h
  post-emergence herbicidal activity index: 1 (25-49% control)
